One molecule from patent US9498423B2, “Synergistic selenopeptide formulations for the protection of dermal papilla cells” (Sami Labs Limited, priority 2012, dated 2016) can be followed below.

In this assay the test system is Human dermal papilla cells. The experiment in a line: UVB stress protection of dermal papilla cells, cell viability by Neutral Red Uptake staining. Particulars: UVB 0.432 J/cm^2; Table 1. Format: cell-based.

Method: Human dermal papilla cells were plated into a 96 well flat bottomed clear micro plate at a seeding density of 5000 cells per well. The 24 hour monolayer of cells was exposed to UVB dosages ranging from 0.0072 J/cm^2 to 1.0 J/cm^2 (stress signal) with or without sample (protective formulations) treatment. After exposure, the cells were incubated in a CO2 incubator for 48 hours and developed by NRU (Neutral Red Uptake) staining techniques to analyze cell viability. The absorbance due to viable cells is read at 492 nm in a micro plate reader.

For the molecule `C[Se]CC[C@H](NC(=O)CC[C@H](N)C(=O)O)C(=O)O` [γ-L-glutamyl-L-Selenomethionine], the “Protection of dermal papilla cells, UVB irradiation level 0.432 J/cm^2” value is given as “No protection”.
